Where two headings read alike, the source gives them in different places.
Assays:
Assay type in all cases: cell-based
hKv1.3 = hKv1.3 (Homo sapiens, UniProt P22001); test: cell-based
[1] = system: IFN-g secretion from T cells in human whole blood; conditions: read-out: WB (IFNg) IC50 (nM, Avg)
[2] = system: IL-2 secretion from T cells in human whole blood; conditions: read-out: WB (IL-2) IC50 (nM, Avg)

Sequence of hKv1.3 (P22001 whole entry): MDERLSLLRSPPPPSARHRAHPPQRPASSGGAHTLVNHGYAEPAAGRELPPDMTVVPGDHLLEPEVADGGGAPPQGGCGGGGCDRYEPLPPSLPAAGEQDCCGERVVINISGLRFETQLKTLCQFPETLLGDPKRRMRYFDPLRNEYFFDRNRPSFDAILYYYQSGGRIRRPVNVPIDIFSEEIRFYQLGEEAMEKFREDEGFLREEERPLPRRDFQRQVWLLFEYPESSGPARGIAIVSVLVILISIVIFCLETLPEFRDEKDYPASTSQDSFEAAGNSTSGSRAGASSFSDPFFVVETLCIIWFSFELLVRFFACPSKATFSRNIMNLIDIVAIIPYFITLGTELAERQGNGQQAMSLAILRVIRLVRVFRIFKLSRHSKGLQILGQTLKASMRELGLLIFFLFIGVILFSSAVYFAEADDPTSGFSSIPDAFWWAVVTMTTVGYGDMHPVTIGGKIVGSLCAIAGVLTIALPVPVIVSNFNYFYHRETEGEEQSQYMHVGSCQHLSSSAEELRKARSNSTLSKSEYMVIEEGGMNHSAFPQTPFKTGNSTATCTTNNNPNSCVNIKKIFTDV

CC[C@H](C)[C@@H]1NC(=O)[C@@H](NC(=O)[C@H](CO)NC(=O)[C@@H](N)CCCNC(=N)N)CSSC[C@@H](C(=O)O)NC(=O)[C@H]([C@@H](C)O)NC(=O)CNC(=O)[C@@H]2CSSC[C@@H]3NC(=O)[C@H](CCC(N)=O)NC(=O)[C@H](Cc4ccccc4)NC(=O)[C@H](C)NC(=O)[C@H]([C@@H](C)O)NC(=O)[C@H](CSSC[C@H](NC(=O)[C@H](Cc4ccccc4)NC(=O)[C@H](CO)NC(=O)[C@H](CC(C)C)NC(=O)[C@H](CCCNC(=N)N)NC(=O)[C@H](Cc4ccc(O)cc4)NC(=O)[C@H](CCCCN)NC(=O)[C@H](CCSC)NC(=O)[C@H](Cc4cccc5ccccc45)NC(=O)[C@H](Cc4cnc[nH]4)NC(=O)[C@H](CCCCN)NC3=O)C(=O)N[C@@H](CCCNC(=N)N)C(=O)N[C@@H](CCCCN)C(=O)N[C@@H]([C@@H](C)O)C(=O)N2)NC(=O)[C@H](CCCNC(=N)N)NC(=O)[C@H](CO)NC(=O)[C@H](CCCCN)NC(=O)[C@@H]2CCCN2C(=O)[C@H]([C@@H](C)CC)NC(=O)[C@H]([C@@H](C)O)NC(=O)[C@H](CC(=O)O)NC1=O [[1-Nal20]ShK]
IC50 (hKv1.3; Kv1.3 (IWQ) IC50 (nM, Avg)): 2.11 nM

20kDaPEG-[-Nal16]ShK (RSCIDTIPKSRCTAFXCKHSMKYRLSFCRKTCGTC; 20 kDa PEG; 1-Nal16; ShK PEGylated toxin peptide analog; PEGylated; 3-(1-naphthyl)alanine)
IC50 (hKv1.3; read-out: Kv1.3 (IWQ) IC50 (nM, Avg)): 39.1 nM

CC[C@H](C)[C@@H]1NC(=O)[C@@H](NC(=O)[C@H](CO)NC(=O)[C@@H](N)CCCNC(=N)N)CSSC[C@@H](C(=O)O)NC(=O)[C@H]([C@@H](C)O)NC(=O)CNC(=O)[C@@H]2CSSC[C@@H]3NC(=O)[C@H](CCC(N)=O)NC(=O)[C@H](Cc4ccccc4)NC(=O)[C@H](C)NC(=O)[C@H]([C@@H](C)O)NC(=O)[C@H](CSSC[C@H](NC(=O)[C@H](Cc4ccccc4)NC(=O)[C@H](CO)NC(=O)[C@H](CC(C)C)NC(=O)[C@H](CCCNC(=N)N)NC(=O)[C@H](Cc4ccc(O)cc4)NC(=O)[C@H](CCCCN)NC(=O)[C@H](CCSC)NC(=O)[C@H](CO)NC(=O)[C@H](Cc4c[nH]cn4)NC(=O)[C@H](CCCCN)NC3=O)C(=O)N[C@@H](CCCNC(=N)N)C(=O)N[C@@H](CCCCN)C(=O)N[C@@H]([C@@H](C)O)C(=O)N2)NC(=O)[C@H](CCCNC(=N)N)NC(=O)[C@H](CO)NC(=O)[C@H](CCCCN)NC(=O)[C@@H]2CCCN2C(=O)[C@H]([C@@H](C)CC)NC(=O)[C@H](CCCCN)NC(=O)[C@H](CC(=O)O)NC1=O [[Lys6]ShK]
IC50 [1]: 0.21 nM
IC50 (hKv1.3; Kv1.3 (IWQ) IC50 (nM, Avg)): 0.085 nM

CC[C@H](C)[C@@H]1NC(=O)[C@@H](NC(=O)[C@H](CO)NC(=O)[C@@H](N)CCCNC(=N)N)CSSC[C@@H](C(=O)O)NC(=O)[C@H]([C@@H](C)O)NC(=O)CNC(=O)[C@@H]2CSSC[C@@H]3NC(=O)[C@H](CCC(N)=O)NC(=O)[C@H](Cc4ccccc4)NC(=O)[C@H](C)NC(=O)[C@H]([C@@H](C)O)NC(=O)[C@H](CSSC[C@H](NC(=O)[C@H](Cc4ccccc4)NC(=O)[C@H](CO)NC(=O)[C@H](CC(C)C)NC(=O)[C@H](CCCNC(=N)N)NC(=O)[C@H](CCCNC(=N)N)NC(=O)[C@H](CCCCN)NC(=O)[C@H](CCSC)NC(=O)[C@H](CO)NC(=O)[C@H](Cc4cnc[nH]4)NC(=O)[C@H](CCCCN)NC3=O)C(=O)N[C@@H](CCCNC(=N)N)C(=O)N[C@@H](CCCCN)C(=O)N[C@@H]([C@@H](C)O)C(=O)N2)NC(=O)[C@H](CCCNC(=N)N)NC(=O)[C@H](CO)NC(=O)[C@H](CCCCN)NC(=O)[C@@H]2CCCN2C(=O)[C@H]([C@@H](C)CC)NC(=O)[C@H]([C@@H](C)O)NC(=O)[C@H](CC(=O)O)NC1=O [[Arg23]ShK]
IC50 (hKv1.3; Kv1.3 (IWQ) IC50 (nM, Avg)): 0.154 nM

CC[C@H](C)[C@@H]1NC(=O)[C@@H](NC(=O)[C@H](CO)NC(=O)[C@@H](N)CCCNC(=N)N)CSSC[C@@H](C(=O)O)NC(=O)[C@H]([C@@H](C)O)NC(=O)CNC(=O)[C@@H]2CSSC[C@@H]3NC(=O)[C@H](CCC(N)=O)NC(=O)[C@H](Cc4ccccc4)NC(=O)[C@H](C)NC(=O)[C@H]([C@@H](C)O)NC(=O)[C@H](CSSC[C@H](NC(=O)[C@H](Cc4ccccc4)NC(=O)[C@H](CO)NC(=O)[C@H](CC(C)C)NC(=O)[C@H](CCCNC(=N)N)NC(=O)[C@H](Cc4ccc(O)cc4)NC(=O)[C@H](CCCNC(=N)N)NC(=O)[C@H](CCSC)NC(=O)[C@H](CO)NC(=O)[C@H](Cc4cnc[nH]4)NC(=O)[C@H](CCCCN)NC3=O)C(=O)N[C@@H](CCCNC(=N)N)C(=O)N[C@@H](CCCCN)C(=O)N[C@@H]([C@@H](C)O)C(=O)N2)NC(=O)[C@H](CCCNC(=N)N)NC(=O)[C@H](CO)NC(=O)[C@H](CCCCN)NC(=O)[C@@H]2CCCN2C(=O)[C@H]([C@@H](C)CC)NC(=O)[C@H]([C@@H](C)O)NC(=O)[C@H](CC(=O)O)NC1=O [[Arg22]ShK]
IC50 (hKv1.3; Kv1.3 (IWQ) IC50 (nM, Avg)): 18.7 nM

CC[C@H](C)[C@@H]1NC(=O)[C@@H](NC(=O)[C@H](CO)NC(=O)[C@@H](N)CCCNC(=N)N)CSSC[C@@H](C(=O)O)NC(=O)[C@H](Cc2cccc3ccccc23)NC(=O)CNC(=O)[C@@H]2CSSC[C@@H]3NC(=O)[C@H](CCC(N)=O)NC(=O)[C@H](Cc4ccccc4)NC(=O)[C@H](C)NC(=O)[C@H]([C@@H](C)O)NC(=O)[C@H](CSSC[C@H](NC(=O)[C@H](Cc4ccccc4)NC(=O)[C@H](CO)NC(=O)[C@H](CC(C)C)NC(=O)[C@H](CCCNC(=N)N)NC(=O)[C@H](Cc4ccc(O)cc4)NC(=O)[C@H](CCCCN)NC(=O)[C@H](CCSC)NC(=O)[C@H](CO)NC(=O)[C@H](Cc4cnc[nH]4)NC(=O)[C@H](CCCCN)NC3=O)C(=O)N[C@@H](CCCNC(=N)N)C(=O)N[C@@H](CCCCN)C(=O)N[C@@H]([C@@H](C)O)C(=O)N2)NC(=O)[C@H](CCCNC(=N)N)NC(=O)[C@H](CO)NC(=O)[C@H](CCCCN)NC(=O)[C@@H]2CCCN2C(=O)[C@H]([C@@H](C)CC)NC(=O)[C@H]([C@@H](C)O)NC(=O)[C@H](CC(=O)O)NC1=O [[1-Nal34]ShK]
IC50 (hKv1.3; Kv1.3 (IWQ) IC50 (nM, Avg)): 0.077 nM

CC[C@H](C)[C@@H]1NC(=O)[C@@H](NC(=O)[C@H](CO)NC(=O)[C@@H](N)CCCNC(=N)N)CSSC[C@@H](C(=O)O)NC(=O)[C@H]([C@@H](C)O)NC(=O)CNC(=O)[C@@H]2CSSC[C@@H]3NC(=O)[C@H](CCC(N)=O)NC(=O)[C@H](Cc4ccccc4)NC(=O)[C@H](C)NC(=O)[C@H]([C@@H](C)O)NC(=O)[C@H](CSSC[C@H](NC(=O)[C@H](Cc4ccccc4)NC(=O)[C@H](CO)NC(=O)[C@H](CC(C)C)NC(=O)[C@H](CCCNC(=N)N)NC(=O)[C@H](Cc4ccc(O)cc4)NC(=O)[C@H](CCCCN)NC(=O)[C@H](CCSC)NC(=O)[C@H](CO)NC(=O)[C@H](Cc4cnc[nH]4)NC(=O)[C@H](CCCCN)NC3=O)C(=O)N[C@@H](CCCNC(=N)N)C(=O)N[C@@H](CCCCN)C(=O)N[C@@H]([C@@H](C)O)C(=O)N2)NC(=O)[C@H](CCCNC(=N)N)NC(=O)[C@H](CO)NC(=O)[C@H](CCCCN)NC(=O)[C@@H]2CCCN2C(=O)[C@H]([C@@H](C)CC)NC(=O)[C@H]([C@@H](C)O)NC(=O)[C@H](CCCCN)NC1=O [[Lys5]ShK]
IC50 (hKv1.3; Kv1.3 (IWQ) IC50 (nM, Avg)): 3.3 nM

CC[C@H](C)[C@@H]1NC(=O)[C@@H](NC(=O)[C@H](CO)NC(=O)[C@@H](N)CCCNC(=N)N)CSSC[C@@H](C(=O)O)NC(=O)[C@H]([C@@H](C)O)NC(=O)CNC(=O)[C@@H]2CSSC[C@@H]3NC(=O)[C@H](CCC(N)=O)NC(=O)[C@H](Cc4ccccc4)NC(=O)[C@H](C)NC(=O)[C@H]([C@@H](C)O)NC(=O)[C@H](CSSC[C@H](NC(=O)[C@H](Cc4ccccc4)NC(=O)[C@H](CO)NC(=O)[C@H](CC(C)C)NC(=O)[C@H](CCCNC(=N)N)NC(=O)[C@H](Cc4ccc(O)cc4)NC(=O)[C@H](CCCCN)NC(=O)[C@H](CCSC)NC(=O)[C@H](CO)NC(=O)[C@H](Cc4c[nH]cn4)NC(=O)[C@H](CCCNC(=N)N)NC3=O)C(=O)N[C@@H](CCCNC(=N)N)C(=O)N[C@@H](CCCCN)C(=O)N[C@@H]([C@@H](C)O)C(=O)N2)NC(=O)[C@H](CCCNC(=N)N)NC(=O)[C@H](CO)NC(=O)[C@H](CCCCN)NC(=O)[C@@H]2CCCN2C(=O)[C@H]([C@@H](C)CC)NC(=O)[C@H]([C@@H](C)O)NC(=O)[C@H](CC(=O)O)NC1=O [[Arg18]ShK]
IC50 [2]: 0.012 nM
IC50 [1]: 0.023 nM

CC[C@H](C)[C@@H]1NC(=O)[C@@H](NC(=O)[C@H](CO)NC(=O)[C@@H](N)CCCNC(=N)N)CSSC[C@@H](C(=O)O)NC(=O)[C@H]([C@@H](C)O)NC(=O)CNC(=O)[C@@H]2CSSC[C@@H]3NC(=O)[C@H](CCC(N)=O)NC(=O)[C@H](Cc4ccccc4)NC(=O)[C@H](C)NC(=O)[C@H](C)NC(=O)[C@H](CSSC[C@H](NC(=O)[C@H](Cc4ccccc4)NC(=O)[C@H](CO)NC(=O)[C@H](CC(C)C)NC(=O)[C@H](CCCNC(=N)N)NC(=O)[C@H](Cc4ccc(O)cc4)NC(=O)[C@H](CCCCN)NC(=O)[C@H](CCSC)NC(=O)[C@H](CO)NC(=O)[C@H](Cc4c[nH]cn4)NC(=O)[C@H](CCCCN)NC3=O)C(=O)N[C@@H](CCCNC(=N)N)C(=O)N[C@@H](CCCCN)C(=O)N[C@@H]([C@@H](C)O)C(=O)N2)NC(=O)[C@H](CCCNC(=N)N)NC(=O)[C@H](CO)NC(=O)[C@H](CCCCN)NC(=O)[C@@H]2CCCN2C(=O)[C@H]([C@@H](C)CC)NC(=O)[C@H]([C@@H](C)O)NC(=O)[C@H](CC(=O)O)NC1=O [[Ala13]ShK]
IC50 [2]: 0.582 nM
IC50 [1]: 0.954 nM
